In experiment [1] the test system is 5-lipoxygenase. The experiment in a line: Ex vivo inhibition of A-23187-stimulated LTB4 formation in whole blood after oral administration. The settings on record: dose of about 1.0 mg/kg p.o. to the dog. How it is done:
Furthermore, the inhibition of 5-lipoxygenase is determined after oral or i.v. administration to rats or dogs by measuring ex vivo in whole blood the decrease of A-23187-stimulated LTB4 formation as compared to non-treated control animals.

In experiment [2] the target is T1, 5-lipoxygenase (Cavia porcellus, UniProt A0A286X958).
T1 construct: A-23187-stimulated guinea pig polymorphonuclear leukocytes; endogenous in cells; host or cells: guinea pig polymorphonuclear leukocytes
T1 sequence (A0A286X958 1-674): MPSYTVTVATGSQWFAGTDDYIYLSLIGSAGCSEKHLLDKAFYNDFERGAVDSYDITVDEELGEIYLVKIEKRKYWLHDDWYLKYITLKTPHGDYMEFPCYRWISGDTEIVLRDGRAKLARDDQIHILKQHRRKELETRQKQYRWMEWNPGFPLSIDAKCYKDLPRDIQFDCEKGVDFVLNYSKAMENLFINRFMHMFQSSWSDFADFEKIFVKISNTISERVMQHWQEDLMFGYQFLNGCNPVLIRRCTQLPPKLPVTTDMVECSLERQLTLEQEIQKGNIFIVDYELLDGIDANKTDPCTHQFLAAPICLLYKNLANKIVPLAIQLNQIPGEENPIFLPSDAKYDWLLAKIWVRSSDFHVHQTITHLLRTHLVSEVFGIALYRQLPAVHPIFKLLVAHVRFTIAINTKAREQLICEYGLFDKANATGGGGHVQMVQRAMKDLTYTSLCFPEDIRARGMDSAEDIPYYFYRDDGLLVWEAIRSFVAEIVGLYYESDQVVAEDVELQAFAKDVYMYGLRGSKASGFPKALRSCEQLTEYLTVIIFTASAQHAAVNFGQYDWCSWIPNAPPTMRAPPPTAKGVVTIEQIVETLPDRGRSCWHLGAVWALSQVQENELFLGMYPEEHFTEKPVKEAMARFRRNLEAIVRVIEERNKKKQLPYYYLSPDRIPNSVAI
The experiment in a line: Inhibition of 5-HETE and LTB4 synthesis in A-23187-stimulated guinea pig polymorphonuclear leukocytes. The format is cell-based. The settings on record: read-out: IC50, inhibition of the formation of 5-HETE and leukotriene B4 (LTB4). As for the experimental part: 5-Lipoxygenase inhibition is determined e.g. by measuring the percent inhibition of the synthesis of 5-HETE [(5S)-5-hydroxy-6,8,11,14-eicosa-tetraenoic acid] and leukotriene B4 (LTB4, 5,12-dihydroxy-6,8, 10, 14-eicosatetraenoic acid) in A-23187-stimulated guinea pig polymorphonuclear leukocytes, essentially according to radiometric thin-layer chromatographic assays described by Walker and Dawson (J. Pharm. Pharmacol. 31: 778, 1979) and Jakschik and Lee (Nature 287: 51, 1980) to measure the formation of 5-HETE and LTB4 -like products from ^14 C-arachidonic acid. IC50 values are determined graphically as the concentration of test compound at which the synthesis of 5-HETE and LTB4 -like products is reduced to 50 % of their respective control values.

What is called IC50 is the concentration that gives 50% inhibition. For `NC(=O)N(O)CCOc1ccc2c(c1)CCN(CCCc1ccccc1)C2=O` [1(f), 2-(3-phenylpropyl)-6-[2-(N-aminocarbonyl-N-hydroxyamino)ethoxy]-1-oxo-1,2,3,4-tetrahydroisoquinoline], the “inhibition of LTB4 formation as determined ex vivo” value in the experiment on 5-lipoxygenase [1] was “significant inhibition”. Further, the IC50 on 5-lipoxygenase [2] is around 500 nM.

The record behind these values is US5334600A, “Isoquinolyl substituted hydroxylamine derivatives” (Ciba-Geigy Corporation, priority 1993, dated 1994).
